Assays:
[1] = test system: HCC2935 lung adenocarcinoma cell line; assay: MTT assay, growth inhibition of HCC2935 cell line; format: cell-based; details: 72 h at 10 ng/μl only
Description: (§1) The inhibition ratio (IR) and the half maximal inhibitory concentration (IC50) values are determined by a MTT assay.

[2] = test system: H1975 lung adenocarcinoma cell line; assay: MTT assay, growth inhibition of H1975 cell line; format: cell-based; details: 48 h and 72 h at 0.5 ng/μl and 10 ng/μl
Description: as §1

arginine deiminase [ADI, reference compound]
growth inhibition effect (cell proliferation / toxicity) [1]: does not inhibit HCC2935 lung adenocarcinoma cell line proliferation | growth inhibition effect (cell proliferation) [2]: does not inhibit H1975 lung adenocarcinoma cell line proliferation
